Where a name gives a salt, the structure may show the parent alone. Read-outs that look alike come from different tables or passages of the source.
Columns and labels:
[1] = tested on: blood flow of optic nerve head induced by intravitreous injection of ET-1; assay: Effect of topical instillation on the ET-1-induced decrease in optic nerve head blood flow (hydrogen clearance method); type: in vivo, Male Dutch pigmented rabbits; conditions: versus physiological saline in contralateral eye; 30 to 120 minutes after ET-1 injection; paired t-test; n=6
Method: The effect of topically applied amosulalol hydrochloride on the blood flow of optic nerve head induced by intravitreous injection of ET-1 in pigmented rabbits.
Male Dutch pigmented rabbits weighing about 2 kg were purchased from Fukusaki Rabbit Farmers Association and used after confirmation of absence of ocular abnormality. The rabbits were housed at 23 ±3 °C and 55±10% R.H. and put on a ration of 100 g/day of rabbit chow (Labo R Stock, Nippon Nosan Kogyo K.K.) with free access to tap water.
As the investigational drug, the anti-ocular circulatory disturbance composition containing 0.5% (w/v) of amosulalol hydrochloride as obtained in Example 7 was used. As a control drug, physiological saline solution was used. […]
The rabbit was placed in a retainer for rabbits and, after instillation of Mydrin P (Registered Trademark, Santen Pharmaceutical) for mydriasis and observation of the optic nerve head for any abnormality, general anesthesia was introduced by injecting urethane (dissolved in distilled water to 20% concentration), 1 g/kg, subcutaneously in the abdominal region. […] The half-life (T1/2) was determined from the line and the blood flow was calculated by means of Kety's theoretical formula (Journal of Clinical Investigate, 27, 476-483, 1948). […]

[2] = tested on: mice; conditions: cited from earlier work

Compound: COc1ccccc1OCCNCC(O)c1ccc(C)c(S(N)(=O)=O)c1 (stereo not drawn) [amosulalol hydrochloride, 5-{1-hydroxy-2-[2-(2-methoxyphenoxy)ethylamino]ethyl}-2-methylbenzenesulfonamide]
- inhibition of the ET-1-induced decrease in blood flow [1]: inhibited
- acute toxicity ([2]; intravenous administration): very low
- acute toxicity ([2]; oral administration): very low

Source: patent EP0955045A1, “DRUGS FOR IMPROVING OCULAR CIRCULATION DISORDERS” (Senju Pharmaceutical Co., Ltd., priority 1996, dated 1998)
